Data reported in patent US11465987B2, “Compounds for treatment of cancer” (ONCTERNAL THERAPEUTICS, INC., priority 2012, dated 2022).
Like-named read-outs stand apart in the source and are kept apart here.

Columns and labels:
[1] = Permeability (drug-like properties)
[2] = Pharmacokinetic study in ICR mice; details: Mouse PK
[3] = tested on: PC-3 human prostate cancer cell line; assay: cells; details: Homo sapiens
From the text: (§1) Cells were stained with SRB solution.

[4] = Pharmacokinetic study in beagle dogs; details: Dog PK, PO 5 mg/kg
[5] = Pharmacokinetic study in Sprague-Dawley rats; details: Rat PK, PO 10 mg/kg
[6] = tested on: confluent HUVEC monolayers; assay: Endothelial monolayer permeability assay; details: FITC-dextran leakage, 1, 2, 4 h
[7] = tested on: LNCaP human prostate cancer cell line; assay: Cytotoxicity (SRB) assay, LNCaP; assay type: cell-based; details: Homo sapiens, LNCaP
From the text: as §1

[8] = tested on: PC-3_TxR xenograft; assay: In vivo PC-3/TxR xenograft; details: PC-3/TxR mice; 17ya […], 55 30 mg/kg
[9] = tested on: melanoma and prostate cancer cell lines; assay: Antiproliferative activity summarised over the cell line panel (range or average); assay type: cell-based; details: read-out: IC50 range against prostate cancer cells, range over prostate cancer cell lines
[10] = tested on: CYP enzymes; assay: CYP enzyme inhibition assays
[11] = tested on: PPC-1 human prostate cancer cell line; assay: Cytotoxicity (SRB) assay, PPC-1; assay type: cell-based; details: Homo sapiens
From the text: as §1

[12] = tested on: tubulin (colchicine, vinblastine and paclitaxel binding sites); assay: MS competition binding assay; details: competitive mass binding assay
From the text: Each reaction was run in triplicate.

[13] = tested on: A375 human melanoma cell line; assay: Cytotoxicity (SRB) assay, A375; assay type: cell-based; details: Homo sapiens
[14] = tested on: BCRP resistant cell line; assay: Cytotoxicity in BCRP-mediated resistant cell line; details: read-out: IC50 ± SEM, HEK293-482R2
[15] = tested on: MDA-MB-435 parental nonresistant melanoma cells; assay: Cytotoxicity (SRB) assay, MDA-MB-435; assay type: cell-based; details: Homo sapiens
[16] = tested on: B16-F1 mouse melanoma cell line; assay: Cytotoxicity (SRB) assay, B16-F1; assay type: cell-based; details: Mus musculus
[17] = tested on: MDA-MB-435/LCCMDR1 multidrug-resistant melanoma cells; assay: Cytotoxicity (SRB) assay, MDA-MB-435/LCCMDR1; assay type: cell-based
[18] = Rotarod test (in vivo neurotoxicity); parameters: species or system mouse; details: ICR mice, i.p. daily; 1h 5 or 15 mg/kg, vinblastine 0.5 mg/kg
Description: ICR mice received training three times a day for two days to enable them to stay on the rotating rod for >120 seconds at 12 rpm. Mice were then randomized by the length of time that they could stay on the rotating rod and divided into 7-8 mice per group. […] The rotarod test was performed twice a week. […] The rod speed was increased from […] to 40 rpm over a period of 5 min. Performance was measured as the length of time that a mouse could stay on the rotating rod.

[19] = tested on: WM-164 human melanoma cell line; assay: Cytotoxicity (SRB) assay, WM-164; assay type: cell-based; details: Homo sapiens, n = 3, read-out: IC50 ± SEM, WM-164
[20] = tested on: PC-3 xenograft; assay: In vivo PC-3 prostate tumor xenograft; details: PC-3, 0.5 mg/kg q2d, day 22
[21] = tested on: A375MA2 melanoma cell line; assay: Cytotoxicity assay, A375MA2; assay type: cell-based; details: Table 14B, n = 3; read-out: IC50 ± SEM, A375MA2
[22] = tested on: MES-SA cells; assay: Growth inhibition (SRB) assay, MES-SA; assay type: cell-based; details: Homo sapiens
[23] = tested on: HEK293-pcDNA3.1 cells; assay: Cytotoxicity assay, HEK293-pcDNA3.1 (parental line of the MRP/BCRP sublines); assay type: cell-based; details: Table 14B; parental cell line; read-out: IC50 ± SEM, HEK293-pcDNA3.1
[24] = tested on: MES-SA/DX5 cells; assay: Growth inhibition (SRB) assay, MES-SA/Dx5; assay type: cell-based; details: Homo sapiens, MES-SA/Dx5
[25] = tested on: DU 145 human prostate cancer cell line; assay: Cytotoxicity (SRB) assay, DU 145; assay type: cell-based; details: Homo sapiens
From the text: as §1

[26] = tested on: OVCAR-8 human ovarian cell line; assay: Cytotoxicity (SRB) assay, OVCAR-8; assay type: cell-based; details: Table 14B, parental cell line, read-out: IC50 ± SEM, OVCAR-8
[27] = read-out: IC50 PC-3, SRB assay, prostate cancer PC-3
[28] = SRB assay, prostate cancer LNCaP, read-out: IC50 LNCaP
[29] = PPC-1, SRB assay, prostate cancer PPC-1, read-out: IC50 PPC-1

## COc1cc(C(=O)c2csc(Nc3ccc4[nH]ccc4c3)n2)cc(OC)c1OC [compound 55, (2-(1H-INDOL-5-YLAMINO)THIAZOL-4-YL)(3,4,5-TRIMETHOXYPHENYL)METHANONE]
[1]
  permeability in words: more than adequate permeability values
[2]; IV 10 mg/kg
  t1/2: 0.767 h
[2]; PO 20 mg/kg
  F: 34%
  t1/2: 2.1 h
[3]; 96 h, read-out: Cytotoxicity IC50, PC-3, Table 15, mean ± SD, 96 h treatment, N = 3
  IC50: 16 ± 1.5 nM
[3]; [27]
  IC50: 12 ± 1 nM
[3]; read-out: IC50 in PC3, Table 16B
  IC50: 28 nM
[4]
  F: 36%
[5]
  F: 24%
  t1/2: 5.83 ± 3.57 h
[6]
  permeability of endothelial cell monolayer in words: increased permeability
[7]; [28]
  IC50: 13 ± 1 nM
[8]
  body weight in words: gaining weight
[9]
  IC50: 7.5 to 24.1 nM
[10]
  CYP enzyme inhibition in words: high IC50 values in micromolar range
[11]; [29]
  IC50: 15 ± 1 nM
[12]
  competition for tubulin binding sites in words: competed effectively with colchicine

## CC[C@]1(O)C[C@@H]2CN(CCc3c([nH]c4ccccc34)[C@@](C(=O)OC)(c3cc4c(cc3OC)N(C)[C@H]3[C@@](O)(C(=O)OC)[C@H](OC(C)=O)[C@]5(CC)C=CCN6CC[C@]43[C@@H]65)C2)C1 [vinblastine, Vinblastine, reference compound]
[13]; A-375, SRB assay, human melanoma A375, read-out: IC50 A375
  IC50: 1 nM
[13]; A-375, Table 14A, n = 3, read-out: IC50 ± SEM, A375 (converted)
  IC50: […]
[13]; A-375, Table 14B, n = 3, read-out: IC50 ± SEM, A375 (converted)
  IC50: 1 ± 0.1 nM
[13]; A-375, Table 21, n = 3, read-out: IC50 ± SEM, A375 (converted)
  IC50: […]
[14]
  IC50: 25 ± 1 nM
[15]; Table 14A, sensitive parent cell line, read-out: IC50 ± SEM, MDA-MB-435 (converted)
  IC50: […]
[15]; read-out: IC50 nonresistant melanoma cell line
  IC50: 0.5 to 10 nM
[3]; read-out: IC50, PC-3, Table 7
  IC50: 1.4 ± 0.3 nM
[3]; [27]
  IC50: 2.1 nM
[3]; read-out: IC50 ± SEM, PC-3, Table 21, n = 3
  IC50: 2.1 ± 0.2 nM
[16]; B16-F1, SRB assay, mouse melanoma B16-F1, read-out: IC50 B16-F1
  IC50: 4.7 nM
[16]; B16-F1, Table 14A, n = 3, read-out: IC50 ± SEM, B16-F1 (converted)
  IC50: 4.7 ± 0.7 nM
[16]; B16-F1, Table 14B, n = 3, read-out: IC50 ± SEM, B16-F1 (converted)
  IC50: 5 ± 1 nM
[16]; B16-F1, Table 21, n = 3, read-out: IC50 ± SEM, B16-F1 (converted)
  IC50: 4.7 ± 0.7 nM
[17]; Homo sapiens, MDA-MB-435/LCCMDR1, read-out: IC50 MDR melanoma cell line
  IC50: 277 to 658 nM
[17]; MDR melanoma line vs sensitive parent line
  P-gp substrate / multidrug resistance in words: substrates for P-glycoprotein (P-gp)
[18]
  rotarod performance in words: gradually reduced the time
[19]; WM164, Table 14A
  IC50: 0.6 ± 0.1 nM
[19]; WM164, Table 14B
  IC50: 0.6 ± 0.1 nM
[20]
  % T/C: 29%
[7]; [28]
  IC50: […]
[7]; Table 7, read-out: IC50, LNCaP
  IC50: 3.4 ± 0.9 nM
[7]; Table 21, n = 3, read-out: IC50 ± SEM, LNCaP (converted)
  IC50: […]
[21]
  IC50: 1 ± 0.2 nM
[22]; SRB assay
  IC50: 1.4 nM
[22]; Table 7, parental line
  IC50: 2.3 ± 0.8 nM
[23]
  IC50: 5 ± 0.1 nM
[24]; SRB assay
  IC50: 16 nM
[24]; Table 7, P-gp over-expressed
  IC50: 45.7 ± 5.3 nM
[11]; [29]
  IC50: […]
[11]; PPC-1, Table 7, read-out: IC50, PPC-1
  IC50: […]
[12]
  competition for tubulin binding sites in words: did not inhibit the colchicine-tubulin binding
[25]; DU-145, SRB assay, prostate cancer DU 145, read-out: IC50 DU 145
  IC50: […]
[25]; DU-145, Table 7, read-out: IC50, DU-145
  IC50: 2.6 ± 1 nM
[25]; DU-145, Table 21, n = 3, read-out: IC50 ± SEM, Du-145
  IC50: […]
[26]
  IC50: 2 ± 0.1 nM
